Laboratory results reported in ChEMBL document CHEMBL1201862, “PubChem BioAssay data set” (2004).
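Exposure lasted 48 hours, with cells grown in 96-well plates and compounds tested at five concentrations. Here, GI50 denotes the concentration required for 50% inhibition of growth.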 Calls of active or inactive are those of the source. Cut-off read from the data, not from the text of the source: active = GI50 up to about 1.1 µM and inactive = higher.

What was measured:
Assay in all cases: NCI-60 cell line screen, 48 h
LOX IMVI = system: LOX IMVI
OVCAR-8 = system: OVCAR-8
K562 = system: K562
SK-MEL-28 = system: SK-MEL-28
COLO 205 = system: COLO 205
CCRF-CEM = system: CCRF-CEM
LXFL 529 = system: LXFL 529
M14 = system: M14
CAKI-1 = system: CAKI-1
HCC 2998 = system: HCC 2998
MOLT-4 = system: MOLT-4
A549 = system: A549
HOP-62 = system: HOP-62
SW-620 = system: SW-620
NCI-H460 = system: NCI-H460
ACHN = system: ACHN
MDA-N = system: MDA-N
MCF7 = system: MCF7
KM-20L2 = system: KM-20L2
DU-145 = system: DU-145
HT-29 = system: HT-29
MDA-MB-231 = system: MDA-MB-231
OVCAR-5 = system: OVCAR-5
TK-10 = system: TK-10
SR = system: SR
NCI-H226 = system: NCI-H226
SK-OV-3 = system: SK-OV-3
PC-3 = system: PC-3
SF-539 = system: SF-539
OVCAR-4 = system: OVCAR-4
786-0 = system: 786-0
IGROV-1 = system: IGROV-1
HOP-18 = system: HOP-18
SNB-19 = system: SNB-19
NCI-H23 = system: NCI-H23
HCT-15 = system: HCT-15
Malme-3M = system: Malme-3M
RXF 631 = system: RXF 631
SF-268 = system: SF-268
KM12 = system: KM12
UACC-62 = system: UACC-62
M19-MEL = system: M19-MEL
NCI/ADR-RES = system: NCI/ADR-RES
RXF 393 = system: RXF 393
T47D = system: T47D
SNB-78 = system: SNB-78
HOP-92 = system: HOP-92
SNB-75 = system: SNB-75
RPMI-8226 = system: RPMI-8226
SF-295 = system: SF-295
UACC-257 = system: UACC-257
NCI-H522 = system: NCI-H522
DMS-114 = system: DMS-114
UO-31 = system: UO-31
A498 = system: A498
MDA-MB-435 = system: MDA-MB-435
XF498 = system: XF498
HCT-116 = system: HCT-116
OVCAR-3 = system: OVCAR-3
EKVX = system: EKVX
HL-60 = system: HL-60
SN12C = system: SN12C
U-251 = system: U-251
SK-MEL-2 = system: SK-MEL-2
Hs-578T = system: Hs-578T
BT-549 = system: BT-549
SK-MEL-5 = system: SK-MEL-5
DLD-1 = system: DLD-1
DMS-273 = system: DMS-273

O=C1c2ccccc2C(=O)c2c(NCCCNCCO)ccc(NCCCNCCO)c21
GI50 (LOX IMVI): 3.5 µM (inactive) | GI50 (OVCAR-8): 7.74 µM (inactive) | GI50 (K562): 2.64 µM (inactive) | GI50 (SK-MEL-28): 12 µM (inactive) | GI50 (COLO 205): 5.85 µM (inactive) | GI50 (CCRF-CEM): 3.08 µM (inactive) | GI50 (LXFL 529): 3.85 µM (inactive) | GI50 (M14): 9.68 µM (inactive) | GI50 (CAKI-1): 10 µM (inactive) | GI50 (HCC 2998): 5.37 µM (inactive) | GI50 (MOLT-4): 3 µM (inactive) | GI50 (A549): 11.5 µM (inactive) | GI50 (HOP-62): 5.35 µM (inactive) | GI50 (SW-620): 5.13 µM (inactive) | GI50 (NCI-H460): 3.8 µM (inactive) | GI50 (ACHN): 4.51 µM (inactive) | GI50 (MDA-N): 7.48 µM (inactive) | GI50 (MCF7): 2.88 µM (inactive) | GI50 (KM-20L2): 5.51 µM (inactive) | GI50 (DU-145): 10.2 µM (inactive) | GI50 (HT-29): 4.82 µM (inactive) | GI50 (MDA-MB-231): 11.6 µM (inactive) | GI50 (OVCAR-5): 8.91 µM (inactive) | GI50 (TK-10): 16 µM (inactive) | GI50 (SR): 3.65 µM (inactive) | GI50 (NCI-H226): 1.61 µM (inactive) | GI50 (SK-OV-3): 14.6 µM (inactive) | GI50 (PC-3): 7.67 µM (inactive) | GI50 (SF-539): 4.24 µM (inactive) | GI50 (OVCAR-4): 9.82 µM (inactive) | GI50 (786-0): 4.79 µM (inactive) | GI50 (IGROV-1): 15.7 µM (inactive) | GI50 (HOP-18): 5.01 µM (inactive) | GI50 (SNB-19): 5.11 µM (inactive) | GI50 (NCI-H23): 10.7 µM (inactive) | GI50 (HCT-15): 12.9 µM | GI50 (Malme-3M): 13.9 µM (inactive) | GI50 (RXF 631): 17.8 µM (inactive) | GI50 (SF-268): 4.82 µM (inactive) | GI50 (KM12): 5.57 µM (inactive) | GI50 (UACC-62): 9.42 µM (inactive) | GI50 (M19-MEL): 4.93 µM (inactive) | GI50 (NCI/ADR-RES): 28.5 µM (inactive) | GI50 (RXF 393): 4.69 µM (inactive) | GI50 (T47D): 8.91 µM (inactive) | GI50 (SNB-78): 8.32 µM (inactive) | GI50 (HOP-92): 10.7 µM (inactive) | GI50 (SNB-75): 7.13 µM (inactive) | GI50 (RPMI-8226): 10.6 µM (inactive) | GI50 (SF-295): 7.33 µM (inactive) | GI50 (UACC-257): 15.2 µM (inactive) | GI50 (NCI-H522): 3.03 µM (inactive) | GI50 (DMS-114): 6.01 µM (inactive) | GI50 (UO-31): 13.1 µM (inactive) | GI50 (A498): 15.9 µM (inactive) | GI50 (MDA-MB-435): 12.6 µM (inactive) | GI50 (XF498): 4.67 µM (inactive) | GI50 (HCT-116): 4.33 µM (inactive) | GI50 (OVCAR-3): 5.71 µM (inactive) | GI50 (EKVX): 11.8 µM (inactive) | GI50 (HL-60): 8.97 µM (inactive) | GI50 (SN12C): 4 µM (inactive) | GI50 (U-251): 5.36 µM (inactive) | GI50 (SK-MEL-2): 13.2 µM (inactive) | GI50 (Hs-578T): 5.52 µM (inactive) | GI50 (BT-549): 14.5 µM (inactive) | GI50 (SK-MEL-5): 13.4 µM (inactive)

Cc1ccc2nc3c(C)cc(=O)cc-3sc2c1
GI50 (OVCAR-8): 22.8 µM (inactive) | GI50 (K562): 12.6 µM (inactive) | GI50 (SK-MEL-28): 25.9 µM (inactive) | GI50 (COLO 205): 27.6 µM (inactive) | GI50 (CCRF-CEM): 10.5 µM (inactive) | GI50 (LXFL 529): 17.9 µM (inactive) | GI50 (M14): 19.6 µM (inactive) | GI50 (CAKI-1): 19.3 µM (inactive) | GI50 (HCC 2998): 26.9 µM (inactive) | GI50 (MOLT-4): 12.6 µM (inactive) | GI50 (A549): 20.1 µM (inactive) | GI50 (HOP-62): 27.5 µM (inactive) | GI50 (SW-620): 17.2 µM (inactive) | GI50 (NCI-H460): 23.4 µM (inactive) | GI50 (ACHN): 17.7 µM (inactive) | GI50 (KM-20L2): 43.5 µM (inactive) | GI50 (HT-29): 36.2 µM (inactive) | GI50 (OVCAR-5): 27.9 µM (inactive) | GI50 (TK-10): 22.7 µM (inactive) | GI50 (SR): 19.1 µM (inactive) | GI50 (NCI-H226): 24.8 µM (inactive) | GI50 (DLD-1): 30.3 µM (inactive) | GI50 (SK-OV-3): 59.6 µM (inactive) | GI50 (SF-539): 18.9 µM (inactive) | GI50 (OVCAR-4): 16.7 µM (inactive) | GI50 (786-0): 18.7 µM (inactive) | GI50 (IGROV-1): 31.8 µM (inactive) | GI50 (HOP-18): 56.6 µM (inactive) | GI50 (SNB-19): 38.1 µM (inactive) | GI50 (NCI-H23): 20.8 µM (inactive) | GI50 (HCT-15): 16 µM | GI50 (Malme-3M): 27.3 µM (inactive) | GI50 (RXF 631): 31.2 µM (inactive) | GI50 (SF-268): 25.6 µM (inactive) | GI50 (KM12): 22.9 µM (inactive) | GI50 (UACC-62): 14.1 µM (inactive) | GI50 (M19-MEL): 15.9 µM (inactive) | GI50 (SNB-78): 32.5 µM (inactive) | GI50 (HOP-92): 34.2 µM (inactive) | GI50 (SNB-75): 32.7 µM (inactive) | GI50 (SF-295): 31.5 µM (inactive) | GI50 (UACC-257): 20.2 µM (inactive) | GI50 (NCI-H522): 17.8 µM (inactive) | GI50 (DMS-114): 17.5 µM (inactive) | GI50 (UO-31): 32 µM (inactive) | GI50 (HCT-116): 17.3 µM (inactive) | GI50 (OVCAR-3): 22 µM (inactive) | GI50 (EKVX): 28.2 µM (inactive) | GI50 (DMS-273): 27.9 µM (inactive) | GI50 (HL-60): 2.45 µM (inactive) | GI50 (SN12C): 21.3 µM (inactive) | GI50 (U-251): 31.8 µM (inactive) | GI50 (SK-MEL-2): 20 µM (inactive) | GI50 (SK-MEL-5): 15.5 µM (inactive)
